Reference: ChEMBL document CHEMBL5724914, “Linking interpersonal differences in gut microbiota composition and drug biotransformation activity” (2024)

Experiments:
[1] = (§1) The drug is tested on WLS-310 corresponding to human gut metagenome with ENA study accession number: PRJEB37062 and ENA sample accession number: ERS12561785 for biotransformation under anaerobic condition. The drug concentrations were measured over 9 timepoints collected between 0 and 24 hours of incubation by liquid-chromatography-coupled mass spectrometry (LC–MS); conditions: 2 µM
[2] = human gut metagenome, 24 h, 2 µM
[3] = as §1, with “WLS-090” for “WLS-310”, “ERS12561753” for “ERS12561785”; conditions: 2 µM
[4] = human gut metagenome, 24 h, 2 µM; remark: listed apart in the source
[5] = human gut metagenome, 24 h, 2 µM; remark: listed apart in the source
[6] = human gut metagenome, 24 h, 2 µM; remark: listed apart in the source
[7] = as §1, with “Z-003” for “WLS-310”, “pig” for “human”, “ERS12561803” for “ERS12561785”; conditions: 2 µM
[8] = as §1, with “WLS-170” for “WLS-310”, “ERS12561762” for “ERS12561785”; conditions: 2 µM
[9] = as §1, with “WLS-027” for “WLS-310”, “ERS12561744” for “ERS12561785”; conditions: 2 µM
[10] = human gut metagenome, 24 h, 2 µM; remark: listed apart in the source
[11] = as §1, with “WLS-350” for “WLS-310”, “ERS12561789” for “ERS12561785”; conditions: 2 µM
[12] = human gut metagenome, 24 h, 2 µM; remark: listed apart in the source
[13] = human gut metagenome, 24 h, 2 µM; remark: listed apart in the source
[14] = human gut metagenome, 24 h, 2 µM; remark: listed apart in the source
[15] = human gut metagenome, 24 h, 2 µM; remark: listed apart in the source
[16] = human gut metagenome, 24 h, 2 µM; remark: listed apart in the source
[17] = human gut metagenome, 24 h, 2 µM; remark: listed apart in the source
[18] = human gut metagenome, 24 h, 2 µM; remark: listed apart in the source
[19] = human gut metagenome, 24 h, 2 µM; remark: listed apart in the source
[20] = human gut metagenome, 24 h, 2 µM; remark: listed apart in the source
[21] = human gut metagenome, 24 h, 2 µM; remark: listed apart in the source
[22] = human gut metagenome, 24 h, 2 µM; remark: listed apart in the source
[23] = human gut metagenome, 24 h, 2 µM; remark: listed apart in the source
[24] = human gut metagenome, 24 h, 2 µM; remark: listed apart in the source
[25] = human gut metagenome, 24 h, 2 µM; remark: listed apart in the source
[26] = human gut metagenome, 24 h, 2 µM; remark: listed apart in the source
[27] = as §1, with “WLS-370” for “WLS-310”, “ERS12561793” for “ERS12561785”; conditions: 2 µM
[28] = human gut metagenome, 24 h, 2 µM; remark: listed apart in the source
[29] = human gut metagenome, 24 h, 2 µM; remark: listed apart in the source
[30] = as §1, with “Z-004” for “WLS-310”, “to” for “to human gut”, “ERS12561804” for “ERS12561785”; conditions: 2 µM
[31] = human gut metagenome, 24 h, 2 µM; remark: listed apart in the source
[32] = human gut metagenome, 24 h, 2 µM; remark: listed apart in the source
[33] = human gut metagenome, 24 h, 2 µM; remark: listed apart in the source
[34] = human gut metagenome, 24 h, 2 µM; remark: listed apart in the source
[35] = as §1, with “WLS-007” for “WLS-310”, “ERS12561742” for “ERS12561785”; conditions: 2 µM
[36] = as §1, with “WLS-073” for “WLS-310”, “ERS12561749” for “ERS12561785”; conditions: 2 µM
[37] = as §1, with “WLS-240” for “WLS-310”, “ERS12561773” for “ERS12561785”; conditions: 2 µM
[38] = as §1, with “WLS-220” for “WLS-310”, “ERS12561769” for “ERS12561785”; conditions: 2 µM
[39] = human gut metagenome, 24 h, 2 µM; remark: listed apart in the source
[40] = human gut metagenome, 24 h, 2 µM; remark: listed apart in the source
[41] = human gut metagenome, 24 h, 2 µM; remark: listed apart in the source
[42] = as §1, with “WLS-077” for “WLS-310”, “ERS12561750” for “ERS12561785”; conditions: 2 µM
[43] = human gut metagenome, 24 h, 2 µM; remark: listed apart in the source
[44] = as §1, with “WLS-038” for “WLS-310”, “ERS12561745” for “ERS12561785”; conditions: 2 µM
[45] = human gut metagenome, 24 h, 2 µM; remark: listed apart in the source
[46] = as §1, with “WLS-082” for “WLS-310”, “ERS12561751” for “ERS12561785”; conditions: 2 µM
[47] = human gut metagenome, 24 h, 2 µM; remark: listed apart in the source
[48] = as §1, with “WLS-098” for “WLS-310”, “ERS12561754” for “ERS12561785”; conditions: 2 µM
[49] = as §1, with “WLS-069” for “WLS-310”, “ERS12561748” for “ERS12561785”; conditions: 2 µM
[50] = as §1, with “WLS-006” for “WLS-310”, “ERS12561741” for “ERS12561785”; conditions: 2 µM
[51] = human gut metagenome, 24 h, 2 µM; remark: listed apart in the source
[52] = human gut metagenome, 24 h, 2 µM; remark: listed apart in the source
[53] = as §1, with “WLS-052” for “WLS-310”, “ERS12561747” for “ERS12561785”; conditions: 2 µM
[54] = as §1, with “WLS-086” for “WLS-310”, “ERS12561752” for “ERS12561785”; conditions: 2 µM
[55] = human gut metagenome, 24 h, 2 µM; remark: listed apart in the source
[56] = human gut metagenome, 24 h, 2 µM; remark: listed apart in the source
[57] = human gut metagenome, 24 h, 2 µM; remark: listed apart in the source
[58] = as §1, with “WLS-039” for “WLS-310”, “ERS12561746” for “ERS12561785”; conditions: 2 µM
[59] = human gut metagenome, 24 h, 2 µM; remark: listed apart in the source
[60] = human gut metagenome, 24 h, 2 µM; remark: listed apart in the source
[61] = human gut metagenome, 24 h, 2 µM; remark: listed apart in the source
[62] = as §1, with “WLS-010” for “WLS-310”, “ERS12561743” for “ERS12561785”; conditions: 2 µM
Further: call rule not given here.

## CC(=O)Oc1ccc(C(c2ccc(OC(C)=O)cc2)c2ccccn2)cc1 [BISACODYL]
[1]
  Bacterial Biotransformation: Compound metabolized
[2]
  Bacterial Biotransformation: Compound metabolized
[3]
  Bacterial Biotransformation: Compound metabolized
[4]
  Bacterial Biotransformation: Compound metabolized
[5]
  Bacterial Biotransformation: Compound metabolized
[6]
  Bacterial Biotransformation: Compound metabolized
[7]
  Bacterial Biotransformation: Compound metabolized
[8]
  Bacterial Biotransformation: Compound metabolized
[9]
  Bacterial Biotransformation: Compound metabolized
[10]
  Bacterial Biotransformation: Compound metabolized
[11]
  Bacterial Biotransformation: Compound metabolized
[12]
  Bacterial Biotransformation: Compound metabolized
[13]
  Bacterial Biotransformation: Compound metabolized
[14]
  Bacterial Biotransformation: Compound metabolized
[15]
  Bacterial Biotransformation: Compound metabolized
[16]
  Bacterial Biotransformation: Compound metabolized
[17]
  Bacterial Biotransformation: Compound metabolized
[18]
  Bacterial Biotransformation: Compound metabolized
[19]
  Bacterial Biotransformation: Compound metabolized
[20]
  Bacterial Biotransformation: Compound metabolized
[21]
  Bacterial Biotransformation: Compound metabolized
[22]
  Bacterial Biotransformation: Compound metabolized
[23]
  Bacterial Biotransformation: Compound metabolized
[24]
  Bacterial Biotransformation: Compound metabolized
[25]
  Bacterial Biotransformation: Compound metabolized
[26]
  Bacterial Biotransformation: Compound metabolized
[27]
  Bacterial Biotransformation: Compound metabolized
[28]
  Bacterial Biotransformation: Compound metabolized
[29]
  Bacterial Biotransformation: Compound metabolized
[30]
  Bacterial Biotransformation: Compound metabolized
[31]
  Bacterial Biotransformation: Compound metabolized
[32]
  Bacterial Biotransformation: Compound metabolized
[33]
  Bacterial Biotransformation: Compound metabolized
[34]
  Bacterial Biotransformation: Compound metabolized
[35]
  Bacterial Biotransformation: Compound metabolized
[36]
  Bacterial Biotransformation: Compound metabolized
[37]
  Bacterial Biotransformation: Compound metabolized
[38]
  Bacterial Biotransformation: Compound metabolized
[39]
  Bacterial Biotransformation: Compound metabolized
[40]
  Bacterial Biotransformation: Compound metabolized
[41]
  Bacterial Biotransformation: Compound metabolized
[42]
  Bacterial Biotransformation: Compound metabolized
[43]
  Bacterial Biotransformation: Compound metabolized
[44]
  Bacterial Biotransformation: Compound metabolized
[45]
  Bacterial Biotransformation: Compound metabolized
[46]
  Bacterial Biotransformation: Compound metabolized
[47]
  Bacterial Biotransformation: Compound metabolized
[48]
  Bacterial Biotransformation: Compound metabolized
[49]
  Bacterial Biotransformation: Compound metabolized
[50]
  Bacterial Biotransformation: Compound metabolized
[51]
  Bacterial Biotransformation: Compound metabolized
[52]
  Bacterial Biotransformation: Compound metabolized
[53]
  Bacterial Biotransformation: Compound metabolized
[54]
  Bacterial Biotransformation: Compound metabolized
[55]
  Bacterial Biotransformation: Compound metabolized
[56]
  Bacterial Biotransformation: Compound metabolized
[57]
  Bacterial Biotransformation: Compound metabolized
[58]
  Bacterial Biotransformation: Compound metabolized
[59]
  Bacterial Biotransformation: Compound metabolized
[60]
  Bacterial Biotransformation: Compound metabolized
[61]
  Bacterial Biotransformation: Compound metabolized
[62]
  Bacterial Biotransformation: Compound metabolized

## O=C([O-])C[C@H](O)C[C@H](O)/C=C/c1c(C2CC2)nc2ccccc2c1-c1ccc(F)cc1.O=C([O-])C[C@H](O)C[C@H](O)/C=C/c1c(C2CC2)nc2ccccc2c1-c1ccc(F)cc1.[Ca+2] [PITAVASTATIN CALCIUM]
[1]
  Bacterial Biotransformation: Compound metabolized
[2]
  Bacterial Biotransformation: Compound NOT metabolized
[3]
  Bacterial Biotransformation: Compound metabolized
[4]
  Bacterial Biotransformation: Compound metabolized
[5]
  Bacterial Biotransformation: Compound metabolized
[6]
  Bacterial Biotransformation: Compound metabolized
[8]
  Bacterial Biotransformation: Compound NOT metabolized
[9]
  Bacterial Biotransformation: Compound metabolized
[10]
  Bacterial Biotransformation: Compound NOT metabolized
[11]
  Bacterial Biotransformation: Compound NOT metabolized
[12]
  Bacterial Biotransformation: Compound metabolized
[13]
  Bacterial Biotransformation: Compound metabolized
[14]
  Bacterial Biotransformation: Compound NOT metabolized
[15]
  Bacterial Biotransformation: Compound NOT metabolized
[16]
  Bacterial Biotransformation: Compound metabolized
[17]
  Bacterial Biotransformation: Compound metabolized
[18]
  Bacterial Biotransformation: Compound metabolized
[19]
  Bacterial Biotransformation: Compound metabolized
[20]
  Bacterial Biotransformation: Compound NOT metabolized
[21]
  Bacterial Biotransformation: Compound metabolized
[22]
  Bacterial Biotransformation: Compound NOT metabolized
[23]
  Bacterial Biotransformation: Compound NOT metabolized
[24]
  Bacterial Biotransformation: Compound metabolized
[25]
  Bacterial Biotransformation: Compound metabolized
[26]
  Bacterial Biotransformation: Compound metabolized
[27]
  Bacterial Biotransformation: Compound NOT metabolized
[28]
  Bacterial Biotransformation: Compound NOT metabolized
[29]
  Bacterial Biotransformation: Compound NOT metabolized
[31]
  Bacterial Biotransformation: Compound NOT metabolized
[32]
  Bacterial Biotransformation: Compound metabolized
[33]
  Bacterial Biotransformation: Compound metabolized
[34]
  Bacterial Biotransformation: Compound NOT metabolized
[35]
  Bacterial Biotransformation: Compound metabolized
[36]
  Bacterial Biotransformation: Compound metabolized
[37]
  Bacterial Biotransformation: Compound metabolized
[38]
  Bacterial Biotransformation: Compound metabolized
[39]
  Bacterial Biotransformation: Compound metabolized
[40]
  Bacterial Biotransformation: Compound NOT metabolized
[41]
  Bacterial Biotransformation: Compound metabolized
[42]
  Bacterial Biotransformation: Compound metabolized
[43]
  Bacterial Biotransformation: Compound metabolized
[44]
  Bacterial Biotransformation: Compound metabolized
[45]
  Bacterial Biotransformation: Compound metabolized
[46]
  Bacterial Biotransformation: Compound metabolized
[47]
  Bacterial Biotransformation: Compound metabolized
[48]
  Bacterial Biotransformation: Compound metabolized
[49]
  Bacterial Biotransformation: Compound metabolized
[50]
  Bacterial Biotransformation: Compound metabolized
[51]
  Bacterial Biotransformation: Compound metabolized
[52]
  Bacterial Biotransformation: Compound NOT metabolized
[53]
  Bacterial Biotransformation: Compound metabolized
[54]
  Bacterial Biotransformation: Compound metabolized
[55]
  Bacterial Biotransformation: Compound NOT metabolized
[56]
  Bacterial Biotransformation: Compound metabolized
[57]
  Bacterial Biotransformation: Compound metabolized
[58]
  Bacterial Biotransformation: Compound metabolized
[59]
  Bacterial Biotransformation: Compound metabolized
[60]
  Bacterial Biotransformation: Compound NOT metabolized
[61]
  Bacterial Biotransformation: Compound metabolized
[62]
  Bacterial Biotransformation: Compound metabolized
